Assays:
[1] = Organoleptic evaluation, potassium chloride aqueous solution (Test Example 5); conditions: 0.75 wt % KCl aqueous solution; addition quinic acid-containing composition 5.0 ppm, spilanthol 0.1 ppm, shallot extract 10.0 ppm; panel of 10 experts vs control without agent
Method: The taste-improving agents obtained in Production Examples 1-5 were used to examine the taste-improving effects on potassium salts or potassium salt-containing foods or drinks. [table] To a 0.75 wt % potassium chloride aqueous solution there were added each of the agents for improving taste of Production Examples 1-5, so that the content of the quinic acid-containing compositions (Production Examples 1 and 2), spilanthol (Production Examples 3 and 4) or shallot extract (Production Example 5) in the potassium chloride aqueous solution was as listed in Table 2, and an organoleptic evaluation was conducted by a panel of 10 experts based on the rating scale shown in Table 1, with a product containing no agent for improving taste according to the invention, as the control.

[2] = Organoleptic evaluation, ramen soup (Test Example 11); conditions: addition quinic acid-containing composition 5.0 ppm, spilanthol 0.1 ppm, shallot extract 10.0 ppm, panel of 10 experts vs control
Method: The taste-improving agents obtained in Production Examples 1-5 were used to examine the taste-improving effects on potassium salts or potassium salt-containing foods or drinks. [table] To reduced-sodium ramen soup having the following formulation 4 there were added each of the agents for improving taste of Production Examples 2, 4 and 5 so that the contents of the quinic acid-containing composition (Production Example 2), purified spilanthol (Production Example 4) and shallot extract (Production Example 5) in the soup were as listed in Table 8, and an organoleptic evaluation was conducted by a panel of 10 experts based on the rating scale shown in Table 1, with a product containing no agent for improving taste according to the invention, as the control. [table] A 20 g portion of the powder above was dissolved in 500 g of hot water.

[3] = Organoleptic evaluation, cream stew (second Test Example 13); conditions: addition quinic acid-containing composition 5.0 ppm, spilanthol 0.1 ppm, shallot extract 10.0 ppm, panel of 10 experts vs control
Method: (§1) The taste-improving agents obtained in Production Examples 1-5 were used to examine the taste-improving effects on potassium salts or potassium salt-containing foods or drinks. [table] To reduced-sodium cream stew having the following formulation 7 there were added each of the agents for improving taste of Production Examples 1, 2, 4 and 5 so that the contents of the quinic acid-containing compositions (Production Examples 1 and 2), purified spilanthol (Production Example 4) and shallot extract (Production Example 5) in the stew were as listed in Table 11, and an organoleptic evaluation was conducted by a panel of 10 experts based on the rating scale shown in Table 1, with a product containing no agent for improving taste according to the invention, as the control. [table]

[4] = Organoleptic evaluation, meat sauce (Test Example 14); conditions: addition quinic acid-containing composition 5.0 ppm, spilanthol 0.1 ppm, shallot extract 10.0 ppm, panel of 10 experts vs control
Method: as §1, with “meat sauce” for “cream stew”, “8” for “7”, “meat sauce” for “stew”, “12,” for “11,”

SMILES: CC=CC=CCCC=CC(=O)NCC(C)C [Purified spilanthol (Prod. Ex. 4), N-isobutyl-2,6,8-decatrieneamide]
- Metallic taste [1]: ++ (Noticeable effect (at least 5/10 panelists noticed an effect compared to the control))
- Chicken flavor [2]: − (No effect/change (fewer than 3/10 panelists noticed an effect compared to the control))
- Salty taste [2]: + (Somewhat noticeable effect (at least 3/10 panelists noticed an effect compared to the control))
- Unpleasant taste [2]: + (Somewhat noticeable effect (at least 3/10 panelists noticed an effect compared to the control))
- Milk flavor [3]: − (No effect/change (fewer than 3/10 panelists noticed an effect compared to the control))
- Sweet taste [3]: − (No effect/change (fewer than 3/10 panelists noticed an effect compared to the control))
- Unpleasant taste [3]: + (Somewhat noticeable effect (at least 3/10 panelists noticed an effect compared to the control))
- Meat flavor [4]: − (No effect/change (fewer than 3/10 panelists noticed an effect compared to the control))
- Metallic taste [4]: + (Somewhat noticeable effect (at least 3/10 panelists noticed an effect compared to the control))
- Tomato flavor [4]: − (No effect/change (fewer than 3/10 panelists noticed an effect compared to the control))
